Measurements published in ChEMBL document CHEMBL1909508, “Structure-activity relationship study of arylsulfonylimidazolidinones as anticancer agents” (Bioorg Med Chem Lett, 2011).

Key:
[1] = tested on: HCT-116; experiment: Cytotoxicity against human HCT116 cells by MTT assay; type: functional, cell-based
[2] = tested on: A549; experiment: Cytotoxicity against human A549 cells by MTT assay; type: functional, cell-based
[3] = Inhibition of tubulin polymerization
[4] = tested on: NCI-H460; experiment: Cytotoxicity against human NCI-H460 cells by MTT assay; type: functional, cell-based

| IC50 [3] [nM] | SMILES | IC50 [1] [nM] | IC50 [2] [nM] | IC50 [4] [nM] |
| --- | --- | --- | --- | --- |
| 6000 | CCOC(=O)Nc1ccc(S(=O)(=O)N2C[C@H](c3ccccc3)NC2=O)cc1C | 70 | 50 | 70 |
|  | CCOC(=O)Nc1ccc(S(=O)(=O)N2C[C@H](c3ccccc3)NC2=O)cc1CC | 70 | 60 | 70 |
|  | CCOC(=O)Nc1ccc(S(=O)(=O)N2C[C@H](c3ccccc3)NC2=O)cc1F | 5000 | 3800 | 4500 |
|  | CCOC(=O)Nc1ccc(S(=O)(=O)N2C[C@H](c3ccccc3)NC2=O)cc1Cl | 200 | 20 | 20 |
|  | CCc1cc(S(=O)(=O)N2C[C@H](c3ccccc3)NC2=O)ccc1NC(=O)OC | 200 | 250 | 300 |
|  | CCCOC(=O)Nc1ccc(S(=O)(=O)N2C[C@H](c3ccccc3)NC2=O)cc1CC | 60 | 60 | 60 |
|  | CCc1cc(S(=O)(=O)N2C[C@H](c3ccccc3)NC2=O)ccc1NC(=O)OC(C)C | 60 | 60 | 60 |
|  | CCCCOC(=O)Nc1ccc(S(=O)(=O)N2C[C@H](c3ccccc3)NC2=O)cc1CC | 200 | 200 | 200 |
|  | CCc1cc(S(=O)(=O)N2C[C@H](c3ccccc3)NC2=O)ccc1NC(=O)OCC(C)C | 60 | 70 | 80 |
|  | CCc1cc(S(=O)(=O)N2C[C@H](c3ccccc3)NC2=O)ccc1NC(=O)NC(C)C | 60 | 100 | 70 |
|  | CCc1cc(S(=O)(=O)N2C[C@H](c3ccccc3)NC2=O)ccc1NC(=O)NC1CCCCC1 | 300 | 500 | 300 |
|  | CCc1cc(S(=O)(=O)N2C[C@H](c3ccccc3)NC2=O)ccc1NC(=O)c1ccc([N+](=O)[O-])cc1 | 500 | 700 | 800 |
|  | CCc1cc(S(=O)(=O)N2C[C@H](c3ccccc3)NC2=O)ccc1NC(=O)c1ccc(N)cc1 | 460 | 220 | 670 |
|  | CCOC(=O)Nc1ccc(S(=O)(=O)N2C[C@H](c3ccccc3)NC2=O)c(C)c1C | 350 | 300 | 300 |
|  | CCOC(=O)Nc1c(C)cc(S(=O)(=O)N2C[C@H](c3ccccc3)NC2=O)cc1C | > 10000 | > 10000 | > 10000 |
|  | CCOC(=O)Nc1ccc(S(=O)(=O)N2C(=O)N[C@@H](c3ccccc3)C2C)cc1C (some centres not stated) | 5500 | 5000 | 5000 |
|  | CCOC(=O)Nc1ccc(S(=O)(=O)N2C(=O)N[C@@H](c3ccccc3)C2C)cc1Cl (some centres not stated) | 5500 | 6000 | 6000 |
|  | Cc1cc(S(=O)(=O)N2C(=O)N[C@@H](c3ccccc3)C2C)ccc1NC(=O)c1ccc([N+](=O)[O-])cc1 (some centres not stated) | > 10000 | > 10000 | > 10000 |
|  | Cc1cc(S(=O)(=O)N2C(=O)N[C@@H](c3ccccc3)C2C)ccc1NC(=O)c1ccc(N)cc1 (some centres not stated) | > 10000 | > 10000 | > 10000 |
|  | CC1[C@H](c2ccccc2)NC(=O)N1S(=O)(=O)c1ccc(NC(=O)c2ccc([N+](=O)[O-])cc2)c(Cl)c1 (some centres not stated) | > 10000 | > 10000 | > 10000 |
|  | CC1[C@H](c2ccccc2)NC(=O)N1S(=O)(=O)c1ccc(NC(=O)c2ccc(N)cc2)c(Cl)c1 (some centres not stated) | > 10000 | > 10000 | > 10000 |
| 5500 | Nc1ccc(C(=O)Nc2ccc(S(=O)(=O)N3C[C@H](c4ccccc4)NC3=O)cc2Cl)cc1 |  |  |  |
|  | COc1cccc2c1C(=O)c1c(O)c3c(c(O)c1C2=O)C[C@@](O)(C(=O)CO)C[C@@H]3O[C@H]1C[C@H](N)[C@H](O)[C@H](C)O1 [DOXORUBICIN] | 400 |  | 456 |
